Measured values from patent publication US12365696B2, “Small-molecule focal adhesion kinase (FAK) inhibitors” (DANA-FARBER CANCER INSTITUTE, INC., priority 2019, dated 2025).

Key:
[1] = tested on: MDA-MB-231 cells; test: 2D-adherent monolayer cell viability (Cell Titer-Glo), 120 hrs; format: cell-based; conditions: Homo sapiens
Protocol: (§1) For 2D-adherent monolayer experiments, MDA-MB-231 cells were plated in 384-well format and allowed to adhere overnight. Cells were treated with indicated molecules from compound stock plates using a JANUS® Workstation pin tool for 120 hrs. To measure cell viability, Cell Titer-Glo® was added to wells for 15 minutes at room temperature and luminescence was measured on an EnVision™ 2104 Multilabel Plate Reader.
Inventive compound treatment (0.00063-20 μM) led to antiproliferative effects in MDA-MB-231 cells cultured as 2D-adherent monolayers or as ultra-low adherent 3D-spheroid suspensions (Table 5).

[2] = tested on: MDA-MB-231 cells; test: ultra-low adherent 3D-spheroid suspension cell viability (3D Cell Titer-Glo), 120 hours; format: cell-based; conditions: Homo sapiens
Protocol: as §1, with “ultra-low adherent 3D-spheroid suspensions,” for “2D-adherent monolayer experiments,”, “format in media containing 10% Matrigel®” for “format”, “form spheroids” for “adhere”, “hours.” for “hrs.”, “viability, 3D” for “viability,”

[3] = biological target: PTK2 (FAK) (Homo sapiens (Human), UniProt Q05397); test: Z′-LYTE kinase assay (SelectScreen Biochemical Kinase Profiling), enzymatic IC50; conditions: enzymatic, Z′-LYTE; read-out: FAK IC50
Protocol: Enzymatic IC50 data was obtained through ThermoFisher Scientific SelectScreen™ Biochemical Kinase Profiling Service, using a Z′-LYTE™ kinase-specific assay, as described below.
The test compounds were screened in 1% dimethyl sulfoxide (DMSO) (final) in the well. For 10 point titrations, 3-fold serial dilutions were conducted from the starting concentration.
All peptide/kinase mixtures were diluted to a 2× working concentration in the appropriate kinase buffer (see section kinase specific assay conditions for a complete description).
All ATP solutions were diluted to a 4× working concentration in kinase buffer (50 mM 4-(2-hydroxyethyl)-1-piperazineethanesulfonic acid (HEPES) pH 7.5, 0.01% BRIJ-35, 10 mM MgCl2, 1 mM ethylene glycol-bis(β-aminoethyl ether)-N,N,N′,N′-tetraacetic acid (EGTA)). ATP Km apparent was previously determined using a Z′-LYTE assay.
The development reagent was diluted in development buffer (see section kinase-specific assay conditions—direct and cascade for a complete description).
Using a bar-coded Corning, low volume NBS, black 384-well plate (Corning Cat. #4514), 100 nL of 100× test compound in 100% DMSO was added. […] The plate was then shaken for 30 seconds and held at room temperature for a 60 minute kinase reaction incubation period. At which point 5 μL of development reagent solution was added and the plate was shaken for 30 seconds. The plate was held again at room temperature for a 60 minute development reaction incubation period and then read on a fluorescence plate reader and analyzed.
The 2×PTK2 (FAK)/Tyr 07 mixture was prepared in 50 mM HEPES pH 7.5, 0.01% BRIJ-35, 10 mM MgCl2, 1 mM EGTA. […] After the 1 hour kinase reaction incubation period, 5 μL of a 1:16 dilution of development reagent B was added.
SelectScreen Kinase Profiling Service uses XLfit from ID Business Solutions (IDBS). The dose response curve was curve fit to model number 205 (sigmoidal dose-response model).

PTK2 (FAK), sequence (Q05397 whole entry): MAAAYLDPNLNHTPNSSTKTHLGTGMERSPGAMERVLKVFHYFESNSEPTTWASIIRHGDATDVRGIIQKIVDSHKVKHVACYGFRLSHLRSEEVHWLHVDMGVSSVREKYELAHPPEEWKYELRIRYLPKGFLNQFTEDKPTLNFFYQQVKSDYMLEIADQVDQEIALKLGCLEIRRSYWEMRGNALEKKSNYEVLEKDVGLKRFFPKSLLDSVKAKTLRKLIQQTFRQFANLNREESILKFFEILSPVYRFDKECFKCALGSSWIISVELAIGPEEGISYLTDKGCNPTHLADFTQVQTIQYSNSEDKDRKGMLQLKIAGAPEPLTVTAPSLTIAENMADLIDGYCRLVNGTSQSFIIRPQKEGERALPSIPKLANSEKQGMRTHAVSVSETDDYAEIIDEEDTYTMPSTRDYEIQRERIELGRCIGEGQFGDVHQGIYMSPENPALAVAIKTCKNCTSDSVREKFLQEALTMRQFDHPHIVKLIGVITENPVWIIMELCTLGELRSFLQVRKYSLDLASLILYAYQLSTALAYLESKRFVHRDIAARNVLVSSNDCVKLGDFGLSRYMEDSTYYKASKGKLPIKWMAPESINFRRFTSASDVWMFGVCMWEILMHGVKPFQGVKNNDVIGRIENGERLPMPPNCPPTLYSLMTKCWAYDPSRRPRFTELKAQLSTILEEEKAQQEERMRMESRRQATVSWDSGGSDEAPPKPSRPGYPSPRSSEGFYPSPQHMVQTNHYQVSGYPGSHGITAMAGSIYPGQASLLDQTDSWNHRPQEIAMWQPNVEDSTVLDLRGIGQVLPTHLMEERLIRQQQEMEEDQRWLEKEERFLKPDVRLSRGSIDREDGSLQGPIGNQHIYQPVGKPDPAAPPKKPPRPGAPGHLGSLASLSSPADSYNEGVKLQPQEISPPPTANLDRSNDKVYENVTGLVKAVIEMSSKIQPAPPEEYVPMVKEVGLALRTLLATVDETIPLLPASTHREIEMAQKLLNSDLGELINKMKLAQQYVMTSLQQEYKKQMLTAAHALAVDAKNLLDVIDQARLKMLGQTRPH

Row | SMILES | IC50 [1] [nM] | IC50 [2] [nM] | IC50 [3] [nM]
1 | COc1cc(N2CCNCC2)ccc1Nc1ncc2c(n1)N(C)c1sc(C)nc1C(=O)N2C [Compound 12, 6-((2-methoxy-4-(piperazin-1-yl)phenyl)amino)-2,4,9-trimethyl-4,9-dihydro-10H-pyrimido[5,4-b]thiazolo[5,4-e][1,4]diazepin-10-one] | > 10000 | 2500 | 43.5
2 | COc1cc(N2CCN(C)CC2)ccc1Nc1ncc2c(n1)N(C)c1sc(C)nc1C(=O)N2C [Compound 14, 6-((2-methoxy-4-(4-methylpiperazin-1-yl)phenyl)amino)-2,4,9-trimethyl-4,9-dihydro-10H-pyrimido[5,4-b]thiazolo[5,4-e][1,4]diazepin-10-one] | > 10000 | 2300 | 30.3
3 | CCOc1cc(N2CCN(C)CC2)ccc1Nc1ncc2c(n1)N(C)c1sc(C)nc1C(=O)N2C [Compound 16, 6-((2-ethoxy-4-(4-methylpiperazin-1-yl)phenyl)amino)-2,4,9-trimethyl-4,9-dihydro-10H-pyrimido[5,4-b]thiazolo[5,4-e][1,4]diazepin-10-one] | > 10000 | 6100 | 54.5
4 | COc1cc(N2CCN(C)CC2)c(C)cc1Nc1ncc2c(n1)N(C)c1sc(C)nc1C(=O)N2C [Compound 18, 6-((2-methoxy-5-methyl-4-(4-methylpiperazin-1-yl)phenyl)amino)-2,4,9-trimethyl-4,9-dihydro-10H-pyrimido[5,4-b]thiazolo[5,4-e][1,4]diazepin-10-one] | > 10000 | 7700 | 31.5
5 | COc1cc(C2CCN(C)CC2)ccc1Nc1ncc2c(n1)N(C)c1sc(C)nc1C(=O)N2C [Compound 19, 6-((2-methoxy-4-(1-methylpiperidin-4-yl)phenyl)amino)-2,4,9-trimethyl-4,9-dihydro-10H-pyrimido[5,4-b]thiazolo[5,4-e][1,4]diazepin-10-one] | 8900 | 3700 | 51.9
6 | COc1cc(N2CCN(CCO)CC2)ccc1Nc1ncc2c(n1)N(C)c1sc(C)nc1C(=O)N2C [Compound 20, 6-((4-(4-(2-hydroxyethyl)piperazin-1-yl)-2-methoxyphenyl)amino)-2,4,9-trimethyl-4,9-dihydro-10H-pyrimido[5,4-b]thiazolo[5,4-e][1,4]diazepin-10-one] | > 10000 | > 10000 | 73.9
7 | CNC(=O)c1ccc(Nc2ncc3c(n2)N(C)c2sc(C)nc2C(=O)N3C)c(OC)c1 [Compound 21, 3-methoxy-N-methyl-4-((2,4,9-trimethyl-10-oxo-9,10-dihydro-4H-pyrimido[5,4-b]thiazolo[5,4-e][1,4]diazepin-6-yl)amino)benzamide] | > 10000 | > 10000 | 45.4
8 | COc1cc2c(cc1Nc1ncc3c(n1)N(C)c1sc(C)nc1C(=O)N3C)CN(C)CC2 [Compound 22, 6-((6-methoxy-2-methyl-1,2,3,4-tetrahydroisoquinolin-7-yl)amino)-2,4,9-trimethyl-4,9-dihydro-10H-pyrimido[5,4-b]thiazolo[5,4-e][1,4]diazepin-10-one] | > 10000 | > 10000 | 37.8
9 | Cc1nc2c(s1)N(C)c1nc(Nc3ccc4c(c3)CCC(=O)N4)ncc1N(C)C2=O [Compound 23, 2,4,9-trimethyl-6-((2-oxo-1,2,3,4-tetrahydroquinolin-6-yl)amino)-4,9-dihydro-10H-pyrimido[5,4-b]thiazolo[5,4-e][1,4]diazepin-10-one] | > 10000 | > 10000 | 670
10 | COc1cc(C(=O)N2CCC(N3CCN(C)CC3)CC2)ccc1Nc1ncc2c(n1)N(C)c1sc(C)nc1C(=O)N2C [Compound 28, 6-((2-methoxy-4-(4-(4-methylpiperazin-1-yl)piperidine-1-carbonyl)phenyl)amino)-2,4,9-trimethyl-4,9-dihydro-10H-pyrimido[5,4-b]thiazolo[5,4-e][1,4]diazepin-10-one] | > 10000 | > 10000 | 77.7
11 | CCN1C(=O)c2nc(C)sc2N(C)c2nc(Nc3ccc(N4CCC(N5CCN(C)CC5)CC4)cc3OC)ncc21 [Compound 132, 9-ethyl-6-((2-methoxy-4-(4-(4-methylpiperazin-1-yl)piperidin-1-yl)phenyl)amino)-2,4-dimethyl-4,9-dihydro-10H-pyrimido[5,4-b]thiazolo[5,4-e][1,4]diazepin-10-one] | > 10000 | 930 | 18.8
12 | CCN1c2nc(Nc3ccc(N4CCC(N5CCN(C)CC5)CC4)cc3OC)ncc2N(C)C(=O)c2nc(C)sc21 [Compound 159, 4-ethyl-6-((2-methoxy-4-(4-(4-methylpiperazin-1-yl)piperidin-1-yl)phenyl)amino)-2,9-dimethyl-4,9-dihydro-10H-pyrimido[5,4-b]thiazolo[5,4-e][1,4]diazepin-10-one] | > 10000 | > 10000 | 22.9
13 | CNC(=O)c1ccc(Nc2ncc3c(n2)N(C)c2sc(C)nc2C(=O)N3C)cc1 [Compound 197, N-methyl-4-((2,4,9-trimethyl-10-oxo-9,10-dihydro-4H-pyrimido[5,4-b]thiazolo[5,4-e][1,4]diazepin-6-yl)amino)benzamide] | > 10000 | 5900 | 173
14 | COc1cc(N2CCN(S(C)(=O)=O)CC2)ccc1Nc1ncc2c(n1)N(C)c1sc(C)nc1C(=O)N2C [Compound 198, 6-((2-methoxy-4-(4-(methylsulfonyl)piperazin-1-yl)phenyl)amino)-2,4,9-trimethyl-4,9-dihydro-10H-pyrimido[5,4-b]thiazolo[5,4-e][1,4]diazepin-10-one] | > 10000 | > 10000 | 46.9
15 | COc1cc(N2CCC(N3CCN(C)CC3)CC2)ccc1Nc1ncc2c(n1)N(C)c1sc(C(C)C)nc1C(=O)N2C [Compound 203, 2-isopropyl-6-((2-methoxy-4-(4-(4-methylpiperazin-1-yl)piperidin-1-yl)phenyl)amino)-4,9-dimethyl-4,9-dihydro-10H-pyrimido[5,4-b]thiazolo[5,4-e][1,4]diazepin-10-one] |  |  | 58.8
16 | COc1cc(N2CCC(N3CCN(C)CC3)CC2)ccc1Nc1ncc2c(n1)N(CC(F)(F)F)c1sc(C)nc1C(=O)N2C [Compound 204, 6-((2-methoxy-4-(4-(4-methylpiperazin-1-yl)piperidin-1-yl)phenyl)amino)-2,9-dimethyl-4-(2,2,2-trifluoroethyl)-4,9-dihydro-10H-pyrimido[5,4-b]thiazolo[5,4-e][1,4]diazepin-10-one] |  |  | 68.3
17 | CCCN1c2nc(Nc3ccc(N4CCC(N5CCN(C)CC5)CC4)cc3OC)ncc2N(C)C(=O)c2nc(C)sc21 [Compound 205, 6-((2-methoxy-4-(4-(4-methylpiperazin-1-yl)piperidin-1-yl)phenyl)amino)-2,9-dimethyl-4-propyl-4,9-dihydro-10H-pyrimido[5,4-b]thiazolo[5,4-e][1,4]diazepin-10-one] |  |  | 46.6
